Reference: patent US20070049593A1 (priority 2004, published 2007)
Where a name gives a salt, the structure may show the parent alone.

Each compound was assayed against T1, HCV polymerase (Hepatitis C virus genotype 1b, UniProt P26663) (assay: biochemical). Settings: not given.
T1 construct: a region encoding NS5B (J Virol 1991 March, 65(3), 1105-13, 544 amino acids after deletion of 47 amino acids on the C-terminal); 6xHis (C); made in house; host or cells: Escherichia coli
T1 sequence (P26663 2420-2963): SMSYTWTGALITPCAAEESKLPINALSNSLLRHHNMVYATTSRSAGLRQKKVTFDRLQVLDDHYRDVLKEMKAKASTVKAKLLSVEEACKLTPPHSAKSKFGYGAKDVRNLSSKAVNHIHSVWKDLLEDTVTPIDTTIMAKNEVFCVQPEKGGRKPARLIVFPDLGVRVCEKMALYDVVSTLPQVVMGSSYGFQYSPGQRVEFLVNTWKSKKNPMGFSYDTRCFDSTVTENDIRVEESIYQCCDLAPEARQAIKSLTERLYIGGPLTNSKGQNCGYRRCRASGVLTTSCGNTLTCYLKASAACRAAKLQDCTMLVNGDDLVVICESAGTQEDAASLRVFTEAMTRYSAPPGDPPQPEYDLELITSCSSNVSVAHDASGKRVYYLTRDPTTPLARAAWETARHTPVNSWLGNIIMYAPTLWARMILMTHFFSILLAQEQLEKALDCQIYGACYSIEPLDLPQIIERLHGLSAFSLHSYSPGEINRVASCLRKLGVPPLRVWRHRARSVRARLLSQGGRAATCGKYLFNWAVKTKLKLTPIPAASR
Design: species or system HCV BK strain
Outline: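 Recombinant HCV BK-strain NS5B (C-terminal 47 aa deleted, His6-tagged, E. coli), 0.5 μg/ml, run with 5 μg/ml in vitro-transcribed RNA template (polyU/3′X), ATP/GTP/CTP 50 μM, UTP 2 μM plus [3H]UTP, pH 7.5, 25° C, 90 min. TCA-precipitated RNA counted by scintillation; IC50 from activity with vs without compound.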
Compound `O=C(O)c1ccc2c(C3CCCCC3)c3n(c2c1)CCN(CCc1ccncc1)c1ccccc1-3` [Example 1-182, 13-cyclohexyl-5-[2-(pyridin-4-yl)ethyl]-6,7-dihydro-5H-benzo[5,6][1,4]diazepino[7,1-a]indole-10-carboxylic acid dihydrochloride] has an IC50 of under 0.1 µM. Work on `CCN1CCCC(CCCN2CCn3c(c(C4CCCCC4)c4ccc(C(=O)O)cc43)-c3ccc(Cl)cc32)C1` (stereo not shown) [Example 1-411, 3-chloro-13-cyclohexyl-5-[3-(1-ethylpiperidin-3-yl)propyl]-6,7-dihydro-5H-benzo[5,6][1,4]diazepino[7,1-a]indole-10-carboxylic acid dihydrochloride] yielded an IC50 of under 0.1 µM. `COC(=O)[C@H](Cc1ccc(O)c(Cl)c1)NC(=O)c1ccc2c(C3CCCCC3)c3n(c2c1)CCOc1cc(OC)ccc1-3` [Example 2-363, methyl (S)-3-(3-chloro-4-hydroxyphenyl)-2-[(12-cyclohexyl-3-methoxy-6,7-dihydro-5-oxa-7a-azadibenzo[a,e]azulene-9-carbonyl)amino]propionate] showed an IC50 of under 0.1 µM. Compound `CN(C)C(=O)N1CCn2c(c(C3CCCCC3)c3ccc(C(=O)O)cc32)-c2ccccc21` [Example 1-31, 13-cyclohexyl-5-dimethylcarbamoyl-6,7-dihydro-5H-benzo[5,6][1,4]diazepino[7,1-a]indole-10-carboxylic acid] has an IC50 of 0.1 to 1 µM. `O=C(O)c1ccc2c(C3CCCCC3)c3n(c2c1)CCN(CCN1Cc2ccccc2C1)c1ccccc1-3` [Example 1-145, 13-cyclohexyl-5-[2-(1,3-dihydroisoindol-2-yl)ethyl]-6,7-dihydro-5H-benzo[5,6][1,4]diazepino[7,1-a]indole-10-carboxylic acid dihydrochloride] showed an IC50 of under 0.1 µM. For `CCN1CCN(CCN2CCn3c(c(C4CCCCC4)c4ccc(C(=O)O)nc43)-c3ccc(Cl)cc32)CC1` [Example 8-6, 3-chloro-12-cyclohexyl-5-[2-(4-ethylpiperazin-1-yl)ethyl]-6,7-dihydro-5H-5,7a,8-triazadibenzo[a,e]azulene-9-carboxylic acid trihydrochloride], the IC50 was under 0.1 µM. In the case of `COC(=O)C(CN1CCC(O)CC1)NC(=O)c1ccc2c(C3CCCCC3)c3n(c2c1)CCOc1cc(OC)ccc1-3` (stereo not shown) [Example 2-379, methyl 2-[(12-cyclohexyl-3-methoxy-6,7-dihydro-5-oxa-7a-azadibenzo[a,e]azulene-9-carbonyl)amino]-3-(4-hydroxypiperidin-1-yl)propionate monohydrochloride], the IC50 is reported as 0.1 to 1 µM. For `O=C(O)c1ccc2c(C3CCCCC3)c3n(c2c1)CCOc1c(-c2cccc(CO)c2)cccc1-3` [Example 2-302, 12-cyclohexyl-4-(3-hydroxymethylphenyl)-6,7-dihydro-5-oxa-7a-azadibenzo[a,e]azulene-9-carboxylic acid], the IC50 was under 0.1 µM. `COCCCN(CCN1CCCCC1)c1cccc2c1OCCn1c-2c(C2CCCCC2)c2ccc(C(=O)O)cc21` [Example 2-342] was tested, and the IC50 was under 0.1 µM. For `CC(C)(NC(=O)c1ccc2c(C3CCCCC3)c3n(c2c1)CCOc1ccccc1-3)c1nc2ccccc2n1CC(=O)O` [Example 2-312, (2-{1-[(12-cyclohexyl-6,7-dihydro-5-oxa-7a-azadibenzo[a,e]azulene-9-carbonyl)amino]-1-methylethyl}benzimidazol-1-yl)acetic acid], the IC50 was under 0.1 µM. Work on `O=C(O)c1ccc2c(C3CCCCC3)c3n(c2c1)CCN(CC(=O)N1CCCCC1)c1cc(F)ccc1-3` [Example 1-114, 13-cyclohexyl-3-fluoro-5-[2-oxo-2-(piperidin-1-yl)ethyl]-6,7-dihydro-5H-benzo[5,6][1,4]diazepino[7,1-a]indole-10-carboxylic acid monohydrochloride] yielded an IC50 of under 0.1 µM. In the case of `CS(=O)(=O)c1ccc(N2CCOCC2)c(COc2ccc3c(c2)OCCn2c-3c(C3CCCCC3)c3ccc(C(N)=O)cc32)c1` [Example 2-48, 12-cyclohexyl-3-[5-methanesulfonyl-2-(morpholin-4-yl)benzyloxy]-6,7-dihydro-5-oxa-7a-azadibenzo[a,e]azulene-9-carboxamide monohydrochloride], the IC50 is reported as under 0.1 µM. `CC(=O)N1CCC(CCN(C(C)=O)c2cccc3c2OCCn2c-3c(C3CCCCC3)c3ccc(C(=O)O)cc32)CC1` [Example 2-233, 4-(N-acetyl-N-[2-(1-acetylpiperidin-4-yl)ethyl]amino}-12-cyclohexyl-6,7-dihydro-5-oxa-7a-azadibenzo[a,e]azulene-9-carboxylic acid] was tested, and the IC50 was under 0.1 µM. In the case of `Cc1oc(C(C)(C)NC(=O)c2ccc3c(C4CCCCC4)c4n(c3c2)CCOc2ccccc2-4)nc1C(=O)O` [Example 2-236, 2-{1-[(12-cyclohexyl-6,7-dihydro-5-oxa-7a-azadibenzo[a,e]azulene-9-carbonyl)amino]-1-methylethyl}-5-methyloxazole-4-carboxylic acid], the IC50 is reported as under 0.1 µM. `CN(C)CCN1CCn2c(c(C3CCCCC3)c3ccc(C(=O)O)cc32)-c2ccc(OCc3ccncc3)cc21` [Example 1-565, 13-cyclohexyl-5-(2-dimethylaminoethyl)-3-(pyridin-4-ylmethoxy)-6,7-dihydro-5H-benzo[5,6][1,4]diazepino[7,1-a]indole-10-carboxylic acid trihydrochloride] gave an IC50 of under 0.1 µM. `Cc1cccc2c1-c1c(C3CCCCC3)c3ccc(C(=O)O)cc3n1CCN2CCN1CCCCC1` [Example 1-241, 13-cyclohexyl-1-methyl-5-[2-(piperidin-1-yl)ethyl]-6,7-dihydro-5H-benzo[5,6][1,4]diazepino[7,1-a]indole-10-carboxylic acid dihydrochloride] gave an IC50 of under 0.1 µM. `CC(C)(C)OC(=O)N1CCC(CCN2CCn3c(c(C4CCCCC4)c4ccc(C(=O)O)cc43)-c3ccccc32)CC1` [Example 1-89, 5-[2-(1-tert-butoxycarbonylpiperidin-4-yl)ethyl]-13-cyclohexyl-6,7-dihydro-5H-benzo[5,6][1,4]diazepino[7,1-a]indole-10-carboxylic acid] showed an IC50 of under 0.1 µM. Work on `O=C(O)c1ccc2c(C3CCCCC3)c3n(c2c1)CC(=O)N(CCN1CCCCC1)c1ccccc1-3` [Example 1-235, 13-cyclohexyl-6-oxo-5-[2-(piperidin-1-yl)ethyl]-6,7-dihydro-5H-benzo[5,6][1,4]diazepino[7,1-a]indole-10-carboxylic acid monohydrochloride] yielded an IC50 of under 0.1 µM. Work on `CN(C)CCN(C)C(=O)CN1CCn2c(c(C3CCCCC3)c3ccc(C(=O)O)cc32)-c2ccccc21` [Example 1-222, 13-cyclohexyl-5-{[N-(2-dimethylaminoethyl)-N-methylcarbamoyl]methyl}-6,7-dihydro-5H-benzo[5,6][1,4]diazepino[7,1-a]indole-10-carboxylic acid dihydrochloride] yielded an IC50 of under 0.1 µM. Work on `CC(C)(COc1ccc(N)cc1)NC(=O)c1ccc2c(C3CCCCC3)c3n(c2c1)CCOc1ccccc1-3` [Example 2-224, N-[2-(4-aminophenoxy)-1,1-dimethylethyl]-12-cyclohexyl-6,7-dihydro-5-oxa-7a-azadibenzo[a,e]azulene-9-carboxamide] yielded an IC50 of under 0.1 µM. Compound `COCCN1CCN(C(=O)C(C)(C)NC(=O)c2ccc3c(C4CCCCC4)c4n(c3c2)CCOc2ccccc2-4)CC1` [Example 2-305, N-{2-[4-(2-methoxyethyl)piperazin-1-yl]-1,1-dimethyl-2-oxoethyl}-12-cyclohexyl-6,7-dihydro-5-oxa-7a-azadibenzo[a,e]azulene-9-carboxamide] has an IC50 of under 0.1 µM. Compound `COC[C@](C)(NC(=O)c1ccc2c(C3CCCCC3)c3n(c2c1)CCOc1cc(OC)ccc1-3)C(=O)O` [Example 2-532, (S)-2-[(12-cyclohexyl-3-methoxy-6,7-dihydro-5-oxa-7a-azadibenzo[a,e]azulene-9-carbonyl)amino]-3-methoxy-2-methylpropionic acid] has an IC50 of under 0.1 µM. Work on `O=C(O)c1ccc2c(C3CCCCC3)c3n(c2c1)CCN(Cc1ccncc1)c1ccccc1-3` [Example 1-134, 13-cyclohexyl-5-(pyridin-4-ylmethyl)-6,7-dihydro-5H-benzo[5,6][1,4]diazepino[7,1-a]indole-10-carboxylic acid dihydrochloride] yielded an IC50 of under 0.1 µM. `CN(C)Cc1ccc(NC(=O)C(C)(C)NC(=O)c2ccc3c(C4CCCCC4)c4n(c3c2)CCOc2ccccc2-4)cc1` [Example 2-213, N-[1-(4-dimethylaminomethylphenylcarbamoyl)-1-methylethyl]-12-cyclohexyl-6,7-dihydro-5-oxa-7a-azadibenzo[a,e]azulene-9-carboxamide] gave an IC50 of under 0.1 µM. `CCN1CCN(C(=O)CCCN2CCn3c(c(C4CCCCC4)c4ccc(C(=O)O)cc43)-c3ccccc32)CC1` [Example 1-62, 13-cyclohexyl-5-[4-(4-ethylpiperazin-1-yl)-4-oxobutyl]-6,7-dihydro-5H-benzo[5,6][1,4]diazepino[7,1-a]indole-10-carboxylic acid dihydrochloride] was tested, and the IC50 was under 0.1 µM. `CC(C)(C)OC(=O)N1CCCC(CCN2CCn3c(c(C4CCCCC4)c4ccc(C(=O)O)cc43)-c3ccccc32)C1` (stereo not shown) [Example 1-167, 5-[2-(1-tert-butoxycarbonylpiperidin-3-yl)ethyl]-13-cyclohexyl-6,7-dihydro-5H-benzo[5,6][1,4]diazepino[7,1-a]indole-10-carboxylic acid] showed an IC50 of 0.1 to 1 µM. In the case of `Cc1ccc2c(c1)N(C)CCn1c-2c(C2CCCCC2)c2ccc(C(=O)O)nc21` [Example 8-8, 12-cyclohexyl-3,5-dimethyl-6,7-dihydro-5H-5,7a,8-triazadibenzo[a,e]azulene-9-carboxylic acid], the IC50 is reported as 0.1 to 1 µM.

Same assay, conditions: 25° C., 90 min; [5,6-3H]UTP incorporation into RNA; read-out: HCV polymerase inhibitory activity IC50
In the case of “N-[2-cyclohexyl-9-(1H-tetrazol-5-yl)-6,7-dihydro-5-oxa-7a-azadibenzo[a,e]azulen-4-yl]-N-[2-(piperidin-1-yl)ethyl]propylamine [Example 2-326]”, the IC50 is reported as under 0.1 µM.
